The values that follow come from patent publication US20260053782A1, “TREATMENT REGIMENS FOR PARKINSON'S DISEASE” (BIAL - PORTELA & CA, S.A., priority 2022, published 2026).

The conditions of series [1]: cited from earlier work.
Series [2] deals with patients suffering from early idiopathic Parkinson's disease. The following applies: addition of entacapone vs levodopa-only therapy; levodopa-naïve patients; cited from earlier work.
Series [3] has as its system Parkinson's disease patients with end-of-dose motor fluctuations. Description: 12-hour patient ON/OFF monitoring registered by investigators on pharmacokinetics days. Type of series: in vivo, human. As to conditions: addition of opicapone; overall summary. An excerpt: Subjects were aged ≥30 years with a clinical diagnosis of idiopathic Parkinson's disease according to the United Kingdom Parkinson's Disease Society Brain Bank Clinical Diagnostic Criteria with disease severity stage 1-3 (according to modified Hoehn & Yahr staging) at ON and with end-of-dose motor fluctuations and signs of “wearing off”. Subjects were receiving treatment with levodopa/DDCI for at least 1 year with clear clinical improvement.
Clinical and safety/tolerability outcomes were also assessed as exploratory secondary outcomes. Clinical outcomes included ON and OFF-time assessed using patient-rated tools. The timing of ON and OFF state was registered (in real time) by the investigators during the matching 12-hour pharmacokinetic evaluation, as such applied on the pharmacokinetics days only), and patients also completed 24-hour Hauser ON/OFF diary charts (in 30 minute blocks) during the three days before each pharmacokinetic visit. […] In addition, the patient global impression of change (PGI-C) of opicapone 50 mg was evaluated at the end of the LD/CD 400/100 mg plus opicapone treatment, compared to before the start of the opicapone treatment. […]
All study assessments were evaluated for each LD/CD 400/100 mg plus 50 mg opicapone treatment regimen, compared to the LD/CD 500/125 mg without opicapone regimen.

Series [4] in a line: Levodopa pharmacokinetics over 12 hours after 2 weeks of each LD/CD regimen with or without opicapone 50 mg (Phase II open-label trial). The following applies: human, in vivo. As to the method: The invention was discovered through a Phase IL, randomized, open-label trial evaluating the effect of opicapone (50 mg once-daily) on L-DOPA pharmacokinetics in Parkinson's disease patients with end-of-dose motor fluctuations taking different levodopa/carbidopa (LD/CD) sparing regimens (EudraCT number: 2020-003139-12).
Following screening, all subjects received an LD/CD dose and regimen of 100/25 mg QD5 (giving a total daily dose of 500/125 mg) fixed every 3 hours (from 8:00 to 20:00) for 14±2 days. This is the reference regimen. […]
The pharmacokinetic parameters assessed for each of the regimens included maximum observed plasma concentration (Cmax), time to achieve peak plasma levels (tmax), minimum observed plasma concentration (Cmin), plasma elimination half-life (t1/2), area under the curve (AUC) and fluctuation index (FI, as an expression of peak-to-trough fluctuation, Cmax and Cmin relative to average concentration Cavg).

As for `N[C@@H](Cc1ccc(O)c(O)c1)C(=O)O` [levodopa, L-3,4-dihydroxyphenylalanine], the “half-life of oral levodopa” value in series [1] is 1 to 1.5 h.
In the case of `CCN(CC)C(=O)/C(C#N)=C/c1cc(O)c(O)c([N+](=O)[O-])c1` [entacapone], in series [2], the frequency of dyskinesia entry was “increased frequency of dyskinesia”.
`Cc1c(Cl)c(C)[n+]([O-])c(Cl)c1-c1noc(-c2cc(O)c(O)c([N+](=O)[O-])c2)n1` [opicapone]: in series [3], the OFF time entry was “reduced OFF time” and the ON time entry is recorded as “increased ON time”. Besides, in series [4], the “difference in levodopa tmax” value was “no impact” and the “increase in levodopa t1/2” value was “at least doubled”.
